Assay results published in patent US10272055B2, “Therapeutic compounds and methods” (Regents of the University of Minnesota, priority 2014, dated 2019).
“Also recorded” adds a separate entry of the source.

What was measured:
[1] = test system: breast cancer cells and primary cells; assay: OCR and ECAR, XF Extracellular Flux Analyzer; type: cell-based; details: HBB 20 uM or 40 uM vs DMSO
Experimental: Measuring glycolysis and oxidative metabolism. Cells were maintained in growth medium consisting of 10% FBS, at 37° C. with 5% CO2 and seeded at 100,000 cells per well in XF24-well cell culture microplates (for primary cells HUVEC and HDMVEC, plates were pre-coated with 0.2% college before seeding). Concentrated stocks of HBB was prepared in DMSO. HBB was diluted to 10× working concentration in XF assay medium (a non-buffered medium including 2 mM of L-glutamine but no sodium bicarbonate (buffering agent), glucose, or sodium pyruvate).
Before analysis, the cells were switched from culture medium to XF assay medium. Following baseline measurements, 75 μl of HBB prepared in assay medium was injected into each well to reach final working concentrations. Following the addition of HBB, OCR and ECAR were measured at fixed time interval.
Cells were maintained in growth medium consisting of 10% FBS, at 37° C. with 5% CO2 and seeded at 100,000 cells per well in XF24-well cell culture microplates (for HUVEC, plates were pre-coated with 0.2% college before seeding). Before analysis, the cells were switched from culture medium to XF assay medium. Following baseline measurements, 75 μl of HBB prepared in assay medium was injected into each well to reach final working concentrations. Following the addition of HBB, OCR and ECAR were measured at fixed interval. […]

[2] = test system: MCF-7; assay: HBB plus paclitaxel combination, MTT, Chou-Talalay analysis; type: cell-based; details: MCF-7, HBB vs paclitaxel = 800:1, 24 hours
Experimental: Cells were seeded into 96-well plates at 3,000 cells/well and grown over night. The cells were then treated with different doses of HBB, paclitaxel and combination of the two agents at a constant ratio (HBB vs paclitaxel=800:1). The treatments were conducted for each condition in quadruplicate. […] Combined dose-response curves were fitted to Chou-Talalay lines, and Chou-Talalay combination indices (CIs) were calculated for each fraction affected (Fa) using the equation CI=(D1/Dx1)+(D2/Dx2)+(D1)(D2)/[(Dx1)(Dx2)], where Dx1 and Dx2 are the HBB and paclitaxel doses, respectively, that are required for achieving a particular Fa, and D1 and D2 are the doses of the two agents (combined treatment) required for achieving the same Fa. For each Fa, CI values of 0.8 and 1.2 are cutoffs for synergy and antagonism, respectively (See FIG. 42).

[3] = test system: MCF-7 xenograft; assay: MCF-7 xenograft in nude mice; type: in vivo; details: HBB 4 mg/kg ip daily vs PBS/vehicle
Experimental: FIG. 3A. MCF-7 xenograft with 3×10^6 cells in the 2nd mammary fat pad on day 0. HBB (4 mg/kg ip daily) (ν) or PBS (ρ) treatment began on day 1. * indicates P<0.05. FIG. 3B. MDAMB-231 xenograft with 1×10^6 cells in the 2nd mammary fat pad on day 0. HBB (4 mg/kg ip daily) (ν) or PBS (ρ) treatment began on day 1. N=20 mice per arm for each study; error bars are SEM.
MCF-7 cells were implanted in the mammary fat pad of 4-5 week mice and treatment was initiated when tumor size was ≥15 mm^3 by 2 sequential measurements with randomized assignment to the treatment arms.
FIG. 44A. Nude mice were inoculated with 3×10^6 MCF-7 cells and treated with vehicle (Δ) HBB at the MTD (4 mg/kg/day ip) (▪). (* indicates P<0.05). Error bars are SEM. […] The dose limiting toxicity was weight loss. At the MTD there was a well-tolerated 4% reduction of weight at 42 days (P<0.0001; data not shown). FIG. 44B. Nude mice were inoculated with 1×10^6MDA-MB-231 cells and treated with HBB at the MTD (4 mg/kg/day ip).

[4] = test system: MDA-MB-231; assay: ROS production, DCFDA flow cytometry, MDA-MB-231; type: cell-based; details: MDA-MB-231, 20 uM HBB
Experimental: (§1) FIG. 33 illustrates that HBB induces reactive oxygen species (ROS) production in MCF7 and MDA-MB-231 lines. Cells in log phase growth in complete media were trypsinized and resuspended in complete media containing 20 uM DCFDA. After incubation at 37° C. for 30 minutes, cells were treated with 20 uM HBB or DMSO for 2.5 hours and analyzed by flow cytometer, monitoring fluorescence at 525 nm. Results are represented as histograms of cell count vs fluorescence intensity.

[5] = test system: MCF7; assay: ROS production, DCFDA flow cytometry, MCF7; type: cell-based; details: MCF7, 20 uM HBB
Experimental: as §1

[6] = test system: MCF7 line; assay: 14,15-EET protection against biguanide growth inhibition, MTT, MCF7; type: cell-based; details: MCF-7, exogenous (±)-14,15-EET (1 uM)
Experimental: Cells were plated in complete media in the presence of serum (10% FBS) and cultured at 37° C. with 5% CO2 and treated with biguanides for 24 hours in the presence or absence of 1 uM 14,15-EET. Growth was then measured at 24 hour by MTT assay.

[7] = test system: MDA-MB-231; assay: Cell cycle analysis by flow cytometry, MDA-MB-231; type: cell-based; details: MDA-MB-231, HBB 20 uM, 6 hours
Experimental: Cells in log phase growth treated with HBB (20 uM) or DMSO for 6 hours were trypsinized and fixed in 70% ethanol at 4° C. overnight. The cells were washed with cold PBS and resuspended in Nicoletti buffer (50 μg/ml propidium iodide, 0.1% Triton X-100, 0.1% sodium citrate, pH 7.4, and 1 mg/ml RNase). The samples were then analyzed by flow cytometry (BD Biosciences), and data were analyzed using FlowJo software (Tree Star). Representative profile are shown.

[8] = HBB concentration after ip administration, MCF-7 model; set-up: species or system mice; details: nude, mouse, in vivo, intraperitoneal, 4 mg/kg/day ip, read-out: Concentration of HBB 1 hour following ip administration
Experimental: Concentration of HBB 1 hour following ip administration was 0.527 uM as measured in the MCF-7 model. HBB was administered ip at 4 mg/kg/day in both models, which is the MTD for that dose, route and schedule.

[9] = test system: MDA-MB-231; assay: MTT growth assay, MDA-MB-231 line; type: cell-based; details: MTT assay at 24 hours, 10% FBS
Experimental: FIG. 30 illustrates HBB inhibits proliferation of MCF7 and MDA-MB-231 lines. Cells were plated in complete media in the presence of serum (10% FBS) and cultured at 37° C. with 5% CO2 and treated with HBB or DMSO vehicle. Growth was measured at 24 hours by MTT assay. Results were converted to percent growth of control and represented as mean±S.E. (n=8).

## CCCCCCNC(=N)NC(=N)NCc1ccccc1 [HBB, N1-hexyl-N5-benzyl biguanide]
[1]
  extracellular acidification rate (ECAR): inhibits both OCR and ECAR
  oxygen consumption rate (OCR): inhibits oxygen consumption rate (OCR); also recorded: inhibits both OCR and ECAR
[2]
  combination index plot, HBB with Taxol: synergy
[3]
  tumor growth, MCF-7 xenograft: significant reduction in early engraftment/tumor growth; also recorded: only in the MCF-7 model; also recorded: inhibits the ER+ MCF-7
[4]
  ROS production relative to DMSO: induced significant ROS production
[5]
  ROS production relative to DMSO: induced significant ROS production
[6]
  rescue of MCF-7 growth by 14,15-EET in the presence of the biguanide: partially restores growth; also recorded: partial rescue
[7]
  cell cycle arrest: induces G0/G1 and G2/M cell cycle arrest
[8]
  concentration at 1 h: 527 nM
[9]
  IC50: 22.5 µM
